Values joined by “and” are separate entries in the source; they are usually repeats but may differ in a detail not shown here. Identical values can stand only once. Toxic doses and inconclusive results are not listed. Cut-off read from the data, not from the text of the source: active = T/C of 150% or more; inactive = T/C below 125%.
System: L1210 leukemia ip in BDF1 mice, survival T/C
Assay: NCI In Vivo Anticancer Drug Screen. Data for tumor model L1210 Leukemia (intraperitoneal) in B6D2F1 (BDF1) mice
Conditions: endpoint: mean survival time, higher = longer survival
Outline: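 In this screen, tumor-bearing mice given compound are compared to those given vehicle, and their survival values are reported as a treated-to-control quotient.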

[1] = dose: 25.0 mg/kg/injection, schedule: Q01DX009 (ip), vehicle: saline with Tween-80
[2] = dose: 50.0 mg/kg/injection, schedule: Q01DX009 (ip), vehicle: saline with Tween-80
[3] = dose: 50.0 mg/kg/injection, schedule: Q04DX003 (ip), vehicle: saline with Tween-80
[4] = dose: 100.0 mg/kg/injection, schedule: Q04DX003 (ip), vehicle: saline with Tween-80
[5] = dose: 100.0 mg/kg/injection, schedule: Q01DX009 (ip), vehicle: Klucel (hydroxypropylcellulose) (HPC)
[6] = dose: 200.0 mg/kg/injection, schedule: Q01DX009 (ip), vehicle: Klucel (hydroxypropylcellulose) (HPC)
[7] = dose: 400.0 mg/kg/injection, schedule: Q01DX009 (ip), vehicle: Klucel (hydroxypropylcellulose) (HPC)
[8] = dose: 200.0 mg/kg/injection, schedule: Q04DX003 (ip), vehicle: saline with Tween-80
[9] = dose: 400.0 mg/kg/injection, schedule: Q04DX003 (ip), vehicle: saline with Tween-80
[10] = dose: 100.0 mg/kg/injection, schedule: Q01DX009 (ip), vehicle: saline with Tween-80
[11] = dose: 200.0 mg/kg/injection, schedule: Q01DX009 (ip), vehicle: saline with Tween-80
[12] = dose: 400.0 mg/kg/injection, schedule: Q01DX009 (ip), vehicle: saline with Tween-80
[13] = dose: 100.0 mg/kg/injection, schedule: Q04DX003 (ip), vehicle: Klucel (hydroxypropylcellulose) (HPC)
[14] = dose: 200.0 mg/kg/injection, schedule: Q04DX003 (ip), vehicle: Klucel (hydroxypropylcellulose) (HPC)
[15] = dose: 400.0 mg/kg/injection, schedule: Q04DX003 (ip), vehicle: Klucel (hydroxypropylcellulose) (HPC)
[16] = dose: 75.0 mg/kg/injection, schedule: Q01DX001 (ip), vehicle: saline
[17] = dose: 100.0 mg/kg/injection, schedule: Q01DX001 (ip), vehicle: carboxymethylcellulose (CMC)
[18] = dose: 200.0 mg/kg/injection, schedule: Q01DX001 (ip), vehicle: carboxymethylcellulose (CMC)

Measured: T/C

Cc1cn(Cc2ccc(Cl)cc2Cl)c(C)n1
inactive: dose: 25.0 mg/kg/injection, schedule: Q01DX001 (ip), vehicle: Klucel (hydroxypropylcellulose) (HPC) 100 % of control | dose: 25.0 mg/kg/injection, schedule: Q01DX009 (ip), vehicle: Klucel (hydroxypropylcellulose) (HPC) 97 % of control and 109 % of control | dose: 50.0 mg/kg/injection, schedule: Q01DX001 (ip), vehicle: Klucel (hydroxypropylcellulose) (HPC) 100 % of control | dose: 50.0 mg/kg/injection, schedule: Q04DX002 (ip), vehicle: Klucel (hydroxypropylcellulose) (HPC) 102 % of control and 108 % of control | dose: 100.0 mg/kg/injection, schedule: Q01DX001 (ip), vehicle: Klucel (hydroxypropylcellulose) (HPC) 94 % of control

CCc1ccccc1NC(=O)Nc1ccc(Cl)cc1
inactive: dose: 100.0 mg/kg/injection, schedule: Q01DX009 (ip), vehicle: gum acacia 96 % of control | dose: 100.0 mg/kg/injection, schedule: Q04DX003 (ip), vehicle: gum acacia 95 % of control | dose: 200.0 mg/kg/injection, schedule: Q01DX009 (ip), vehicle: gum acacia 96 % of control | dose: 200.0 mg/kg/injection, schedule: Q04DX003 (ip), vehicle: gum acacia 98 % of control | dose: 400.0 mg/kg/injection, schedule: Q01DX009 (ip), vehicle: gum acacia 97 % of control | dose: 400.0 mg/kg/injection, schedule: Q04DX003 (ip), vehicle: gum acacia 97 % of control

C/C=C/CNc1ccc(C)cc1
inactive: [1] 102 % of control | dose: 25.0 mg/kg/injection, schedule: Q04DX003 (ip), vehicle: saline with Tween-80 97 % of control | [2] 97 % of control | [3] 90 % of control | [4] 101 % of control

CCOC(=O)CCC1(CCC(=O)OCC)c2ccccc2-c2ccccc21
inactive: [5] 97 % of control | [6] 100 % of control | [7] 94 % of control

NC(=O)c1nc(C(F)(F)F)[nH]c1C(N)=O
inactive: dose: 50.0 mg/kg/injection, schedule: Q01DX009 (ip), vehicle: water 96 % of control | dose: 100.0 mg/kg/injection, schedule: Q01DX009 (ip), vehicle: water 102 % of control | dose: 100.0 mg/kg/injection, schedule: Q04DX003 (ip), vehicle: water 100 % of control | dose: 200.0 mg/kg/injection, schedule: Q01DX009 (ip), vehicle: water 109 % of control | dose: 200.0 mg/kg/injection, schedule: Q04DX003 (ip), vehicle: water 100 % of control | dose: 300.0 mg/kg/injection, schedule: Q01DX009 (ip), vehicle: water 91 % of control

OC(c1ccccc1)(c1ccccc1)c1cccs1
inactive: [4] 94 % of control | [8] 94 % of control | [9] 91 % of control

O=C(NO)C1CCC(C(=O)NO)CC1 (configuration not stated)
inactive: [10] 92 % of control | [11] 89 % of control | [12] 89 % of control

CCOC(=O)c1ccc(NC(=O)Nc2ccc(Cl)cc2)cc1
inactive: [5] 97 % of control | [13] 96 % of control | [6] 104 % of control | [14] 104 % of control | [7] 97 % of control | [15] 100 % of control

COc1ccc(C2Nc3cc(Cl)ccc3NC3=C2C(=O)CC(C)(C)C3)cc1 (configuration not stated)
inactive: dose: 100.0 mg/kg/injection, schedule: Q04DX002 (ip), vehicle: Klucel (hydroxypropylcellulose) (HPC) 105 % of control | dose: 200.0 mg/kg/injection, schedule: Q04DX002 (ip), vehicle: Klucel (hydroxypropylcellulose) (HPC) 94 % of control | dose: 400.0 mg/kg/injection, schedule: Q04DX002 (ip), vehicle: Klucel (hydroxypropylcellulose) (HPC) 102 % of control

CC(C)CC(C=O)(CCN1CCCCC1)c1cccc2ccccc12 (configuration not stated)
inactive: dose: 100.0 mg/kg/injection, schedule: Q04DX002 (ip), vehicle: saline with Tween-80 87 % of control and 88 % of control | dose: 100.0 mg/kg/injection, schedule: Q04DX002 (ip), vehicle: saline 98 % of control | dose: 200.0 mg/kg/injection, schedule: Q04DX002 (ip), vehicle: saline with Tween-80 94 % of control and 91 % of control | dose: 200.0 mg/kg/injection, schedule: Q04DX002 (ip), vehicle: saline 91 % of control | dose: 400.0 mg/kg/injection, schedule: Q04DX002 (ip), vehicle: saline with Tween-80 91 % of control

Cc1ccc(Nc2c3ccccc3nc3ccccc23)cc1
inactive: dose: 18.0 mg/kg/injection, schedule: Q01DX009 (ip), vehicle: saline with Tween-80 100 % of control | dose: 37.5 mg/kg/injection, schedule: Q01DX009 (ip), vehicle: saline with Tween-80 110 % of control | dose: 40.0 mg/kg/injection, schedule: Q04DX003 (ip), vehicle: saline with Tween-80 96 % of control | dose: 65.0 mg/kg/injection, schedule: Q04DX003 (ip), vehicle: saline with Tween-80 106 % of control | [16] 100 % of control (2×) and 105 % of control | dose: 75.0 mg/kg/injection, schedule: Q01DX009 (ip), vehicle: saline with Tween-80 113 % of control | dose: 75.0 mg/kg/injection, schedule: Q04DX003 (ip), vehicle: saline with Tween-80 100 % of control | dose: 95.0 mg/kg/injection, schedule: Q04DX003 (ip), vehicle: saline with Tween-80 123 % of control | dose: 150.0 mg/kg/injection, schedule: Q01DX001 (ip), vehicle: saline 118 % of control | dose: 150.0 mg/kg/injection, schedule: Q04DX003 (ip), vehicle: saline with Tween-80 107 % of control and 88 % of control | dose: 225.0 mg/kg/injection, schedule: Q04DX003 (ip), vehicle: saline with Tween-80 118 % of control

CC(=O)CC1(O)C(=O)Nc2ccccc21 (configuration not stated)
inactive: [5] 101 % of control | [6] 95 % of control | [7] 98 % of control

Cc1ccc(N=C2N(c3ccccc3)N(c3ccccc3)C2(c2ccccc2)c2ccccc2)cc1
inactive: [17] 92 % of control | [18] 88 % of control | dose: 400.0 mg/kg/injection, schedule: Q01DX001 (ip), vehicle: carboxymethylcellulose (CMC) 88 % of control

CC1(C)COC(CC2CCCCC2)=N1
inactive: [1] 105 % of control | [2] 102 % of control | dose: 50.0 mg/kg/injection, schedule: Q04DX003 (ip), vehicle: saline 94 % of control | [10] 102 % of control | dose: 100.0 mg/kg/injection, schedule: Q04DX003 (ip), vehicle: saline 91 % of control | [11] 96 % of control | dose: 200.0 mg/kg/injection, schedule: Q04DX003 (ip), vehicle: saline 86 % of control

O=[N+]([O-])c1ccc2conc2c1
inactive: dose: 50.0 mg/kg/injection, schedule: Q01DX001 (ip), vehicle: carboxymethylcellulose (CMC) 94 % of control | [17] 97 % of control | [18] 92 % of control

N=C(CCCc1ccccc1)SCc1ccccc1
inactive: [2] 103 % of control | [3] 94 % of control | dose: 100.0 mg/kg/injection, schedule: Q01DX001 (ip), vehicle: saline with Tween-80 102 % of control | [10] 92 % of control | [4] 93 % of control | dose: 200.0 mg/kg/injection, schedule: Q01DX001 (ip), vehicle: saline with Tween-80 102 % of control

COc1ccc(Cl)cc1NC(=O)COc1ccc(Cl)cc1
inactive: [5] 96 % of control | [13] 102 % of control | [6] 107 % of control | [14] 122 % of control | [7] 96 % of control | [15] 90 % of control

Cc1ccc(S(=O)(=O)N2CCCC(=O)c3ccc(Cl)cc32)cc1
inactive: [5] 101 % of control | [13] 96 % of control | [6] 104 % of control | [14] 100 % of control | [7] 95 % of control | [15] 91 % of control

Cc1ccc(S(=O)(=O)OCC2OC(n3cnc4c(N)ncnc43)C(OS(=O)(=O)c3ccc(C)cc3)C2N=[N+]=[N-])cc1 (configuration not stated)
inactive: dose: 100.0 mg/kg/injection, schedule: Q01DX005 (ip), vehicle: saline 106 % of control | dose: 200.0 mg/kg/injection, schedule: Q01DX005 (ip), vehicle: saline 92 % of control

O=C(O)CCCCc1ccccc1
inactive: [10] 96 % of control | [4] 100 % of control | [11] 100 % of control | [8] 91 % of control | [12] 92 % of control | [9] 94 % of control

CN1CCCCC1c1ccccc1 (configuration not stated)
inactive: [16] 103 % of control

Cc1ccc(C)c(-n2c(C)nc3ccccc3c2=O)c1
inactive: [5] 86 % of control | [6] 100 % of control | [7] 91 % of control

Reference: PubChem BioAssay AID248 (DTP/NCI, 2004)
